biological target: PDE9A (Homo sapiens (Human), UniProt O76083); assay: PDE9A inhibition, fluorescence polarization assay (IMAP-FP screening express kit); format: biochemical; conditions: 10 μM of the compound
Description: The inhibitory activity of the representative compounds according to the present invention against phosphodiesterase 9A was tested based on the polarization assay (IMAP-FP screening express kit) provided by MDS (MDS Analytical Technologies, Sunyvale, CA, USA). As a buffer solution, a reaction solution (a reaction solution containing 0.01% Tween 20 provided by MDS was diluted 5 times, then 5 mM DTT is added) and a polarization detection solution (binding solution A and B provided by MDS were mixed at a ratio of 3:1 and IMAP binding reagent 1/600 was added) were prepared. 100 μM of the substrate (Fl-cGMP substrate; MDS) and 3.6 μg/ml of the enzyme PDE9A (ab54113; abcam) were prepared. 3.6 μg/ml PDE9A and 100 μM substrate were diluted to 20 ng/ml (final reaction concentration: 5 ng/ml) and 400 nM (final reaction concentration: 100 nM), respectively. The buffer solution used for all dilution and preparation processes was 1× reaction solution with 1 mM DTT added, and the polarization detection solution was used to induce polarization at the end.
The prepared samples were dispensed on black microplates (Multiwell 384 well plates, #3573, Corning Life Sciences, Lowell, MA, USA) using a 16-channel pipette (multi 16-channel, Finnpipette, Thermo Scientific, Essex, UK). The total reaction volume per well is 20 μl. At this time, 10 μl of 2% DMSO, 5 μl of substrate solution, and 5 μl of reaction solution were used as a negative control, and 10 μl of 2% DMSO, 5 μl of substrate solution, and 5 μl of PDE9A solution were used as a positive control. As the experimental group, 10 μl of the compound prepared in Example, 5 μl of the substrate solution, and 5 μl of the PDE9A solution were used. After pretreatment between the compound and the enzyme was performed for about 10 minutes before the enzyme-substrate reaction, 5 μl of cGMP was added to induce the enzyme reaction. During the reaction, each compound, enzyme, and substrate occupied 50%, 25%, and 25% of the total volume, respectively, and they were prepared at high concentrations of 2, 4, and 4 times, respectively, immediately before addition. After the enzymatic reaction, it was shaken lightly for 1 minute and the enzyme reaction was induced at room temperature for 1 hour. Then, 60 μl of a polarization detection solution prepared in advance was added to induce polarization.
Nanoparticles composed of trivalent metal ions are mixed in the fluorescence detection solution, which combines with phosphoric acid expose by enzymatic reaction to increase the molecular weight and induce polarization. After leaving for 2 hours at room temperature, the polarization (Fluorescence Polarization, FP) value was measured using a multilabel counter (Envision, PerkinElmer, Turku, Finland) (emission wavelength: P-535 nm, S-535 nm, excitation wavelength: 480 nm), and the result was expressed as an IC50 value, which is the concentration of the compound that inhibited PDE9A by 50% in vitro (Table 2).

Sequence of PDE9A (O76083 whole entry): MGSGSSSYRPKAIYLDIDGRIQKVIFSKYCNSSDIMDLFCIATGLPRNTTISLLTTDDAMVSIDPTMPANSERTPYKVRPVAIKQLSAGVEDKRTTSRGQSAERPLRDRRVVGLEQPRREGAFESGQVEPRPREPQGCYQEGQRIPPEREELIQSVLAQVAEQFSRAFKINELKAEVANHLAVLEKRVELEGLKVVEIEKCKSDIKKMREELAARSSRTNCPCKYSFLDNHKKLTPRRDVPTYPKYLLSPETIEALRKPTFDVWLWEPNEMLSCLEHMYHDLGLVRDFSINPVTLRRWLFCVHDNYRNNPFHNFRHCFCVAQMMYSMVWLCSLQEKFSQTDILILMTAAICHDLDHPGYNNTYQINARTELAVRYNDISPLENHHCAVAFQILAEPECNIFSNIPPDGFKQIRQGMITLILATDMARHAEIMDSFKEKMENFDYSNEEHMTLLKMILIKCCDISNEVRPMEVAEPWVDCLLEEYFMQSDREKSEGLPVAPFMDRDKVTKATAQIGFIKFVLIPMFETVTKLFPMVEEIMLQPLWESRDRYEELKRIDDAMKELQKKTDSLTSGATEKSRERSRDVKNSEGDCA

| inhibition at 10 µM | Compound |
| --- | --- |
| 10.3% | O=c1[nH]c(SCc2nc3cc(-c4ccccc4)ccc3o2)nc2c1cnn2-c1ccccc1 [Example 25, 1-phenyl-6-(((5-phenylbenzo[d]oxazol-2-yl)methyl)thio)-1,5-dihydro-4H-pyrazolo[3,4-d]pyrimidin-4-one] |
| 51.5% | O=c1[nH]c(SCc2nc3ccc([N+](=O)[O-])cc3o2)nc2c1cnn2-c1ccccc1 [Example 28, 6-(((6-nitrobenzo[d]oxazol-2-yl)methyl)thio)-1-phenyl-1,5-dihydro-4H-pyrazolol[3,4-d]pyrimidin-4-one] |
| 38.9% | O=c1[nH]c(SCc2nc3cc(Cl)c([N+](=O)[O-])cc3o2)nc2c1cnn2-c1ccccc1 [Example 31] |

same assay, conditions: Fl-cGMP substrate 100 nM, PDE9A 5 ng/ml, 1 hour at room temperature

| Compound | IC50 |
| --- | --- |
| O=c1[nH]c(SCc2nc3ccccc3o2)nc2c1cnn2-c1ccccc1 [Example 2, 6-((benzo[d]oxazol-2-ylmethyl)thio)-1-phenyl-1,5-dihydro-4H-pyrazolo[3,4-d]pyrimidin-4-one] | 0.049 µM |
| Cc1ccc2oc(CSc3nc4c(cnn4-c4ccccc4)c(=O)[nH]3)nc2c1 [Example 3, 6-(((5-methylbenzo[d]oxazol-2-yl)methyl)thio)-1-phenyl-1,5-dihydro-4H-pyrazolo[3,4-d]pyrimidin-4-one] | 0.081 µM |
| O=c1[nH]c(SCc2nc3cc(F)ccc3o2)nc2c1cnn2-c1ccccc1 [Example 4, 6-(((5-fluorobenzo[d]oxazol-2-yl)methyl)thio)-1-phenyl-1,5-dihydro-4H-pyrazolo[3,4-d]pyrimidin-4-one] | 0.083 µM |
| Cc1ccc2nc(CSc3nc4c(cnn4-c4ccccc4)c(=O)[nH]3)oc2c1 [Example 5, 6-(((6-methylbenzo[d]oxazol-2-yl)methyl)thio)-1-phenyl-1,5-dihydro-4H-pyrazolol[3,4-d]pyrimidin-4-one] | 0.049 µM |
| O=c1[nH]c(SCc2nc3cc(Cl)ccc3o2)nc2c1cnn2-c1ccccc1 [Example 6, 6-(((5-chlorobenzo[d]oxazol-2-yl)methyl)thio)-1-phenyl-1,5-dihydro-4H-pyrazolo[3,4-d]pyrimidin-4-one] | 0.19 µM |
| O=c1[nH]c(SCc2nc3cc(Br)ccc3o2)nc2c1cnn2-c1ccccc1 [Example 7, 6-(((5-bromobenzo[d]oxazol-2-yl)methyl)thio)-1-phenyl-1,5-dihydro-4H-pyrazolo[3,4-d]pyrimidin-4-one] | 0.1 µM |
| O=c1[nH]c(SCc2nc3ccccc3o2)nc2c1cnn2C1CC1 [Example 10, 6-((benzo[d]oxazol-2-ylmethyl)thio)-1-cyclopropyl-1,5-dihydro-4H-pyrazolo[3,4-d]pyrimidin-4-one] | 0.22 µM |
| Cc1ccc2nc(CSc3nc4c(cnn4C4CC4)c(=O)[nH]3)oc2c1 [Example 17, 6-(((6-methylbenzo[d]oxazol-2-yl)methyl)thio)-1-cyclopropyl-1,5-dihydro-4H-pyrazolo[3,4-d]pyrimidin-4-one] | 0.19 µM |
| CC(Sc1nc2c(cnn2-c2ccccc2)c(=O)[nH]1)c1nc2ccccc2o1 (stereo not shown) [Example 19, 6-((1-(benzo[d]oxazol-2-yl)ethyl)thio)-1-phenyl-1,5-dihydro-4H-pyrazolo[3,4-d]pyrimidin-4-one] | 0.028 µM |
| Cc1cccc2oc(CSc3nc4c(cnn4-c4ccccc4)c(=O)[nH]3)nc12 [Example 26, 6-(((4-methylbenzo[d]oxazol-2-yl)methyl)thio)-1-phenyl-1,5-dihydro-4H-pyrazole[3,4-d]pyrimidin-4-one] | 0.14 µM |
| CC(C)(C)c1ccc2oc(CSc3nc4c(cnn4-c4ccccc4)c(=O)[nH]3)nc2c1 [Example 27, 6-(((5-(tert-butyl)benzo[d]oxazol-2-yl)methyl)thio)-1-phenyl-1,5-dihydro-4H-pyrazolo[3,4-d]pyrimidin-4-one] | 6.63 µM |
| O=c1[nH]c(SCc2nc3cc([N+](=O)[O-])ccc3o2)nc2c1cnn2-c1ccccc1 [Example 29, 6-(((5-nitrobenzo[d]oxazol-2-yl)methyl)thio)-1-phenyl-1,5-dihydro-4H-pyrazolo[3,4-d]pyrimidin-4-one] | 2.4 µM |
| O=c1[nH]c(SCc2nc3c([N+](=O)[O-])cccc3o2)nc2c1cnn2-c1ccccc1 [Example 30, 6-(((4-nitrobenzo[d]oxazol-2-yl)methyl)thio)-1-phenyl-1,5-dihydro-4H-pyrazolo[3,4-d]pyrimidin-4-one] | 1.72 µM |

Next, values leading:

| IC50 | Compound |
| --- | --- |
| 0.005 µM | O=c1[nH]c(SCc2nc3ccccc3o2)nc2c1cnn2C1CCOCC1 [Example 1, 6-((benzo[d]oxazol-2-ylmethyl)thio)-1-(tetrahydro-2H-pyran-4-yl)-1,5-dihydro-4H-pyrazolo[3,4-d]pyrimidin-4-one] |
| 0.005 µM | O=c1[nH]c(SCc2nc3ccccc3o2)nc2c1cnn2C1CCC(F)(F)CC1 [Example 8, 6-((benzo[d]oxazol-2-ylmethyl)thio)-1-(4,4-difluorocyclohexyl)-1,5-dihydro-4H-pyrazolo[3,4-d]pyrimidin-4-one] |
| 0.006 µM | O=c1[nH]c(SCc2nc3ccccc3o2)nc2c1cnn2C1CCSCC1 [Example 9, 6-((benzo[d]oxazol-2-ylmethyl)thio)-1-(tetrahydro-2H-thiopyran-4-yl)-1,5-dihydro-4H-pyrazolo[3,4-d]pyrimidin-4-one] |
| 0.006 µM | CC(C)n1ncc2c(=O)[nH]c(SCc3nc4ccccc4o3)nc21 [Example 11, 6-((benzo[d]oxazol-2-ylmethyl)thio)-1-isopropyl-1,5-dihydro-4H-pyrazolo[3,4-d]pyrimidin-4-one] |
| 0.004 µM | O=c1[nH]c(SCc2nc3ccccc3o2)nc2c1cnn2C1CCCCC1 [Example 12, 6-((benzo[d]oxazol-2-ylmethyl)thio)-1-cyclohexyl-1,5-dihydro-4H-pyrazolol[3,4-d]pyrimidin-4-one] |
| 0.012 µM | Cc1ccc2nc(CSc3nc4c(cnn4C4CCC(F)(F)CC4)c(=O)[nH]3)oc2c1 [Example 13, 6-(((6-methylbenzo[d]oxazol-2-yl)methyl)thio)-1-(4,4-difluorocyclohexyl)-1,5-dihydro-4H-pyrazolo[3,4-d]pyrimidin-4-one] |
| 0.004 µM | Cc1ccc2nc(CSc3nc4c(cnn4C4CCOCC4)c(=O)[nH]3)oc2c1 [Example 14, 6-(((6-methylbenzo[d]oxazol-2-yl)methyl)thio)-1-(tetrahydro-2H-pyran-4-yl)-1,5-dihydro-4H-pyrazolo[3,4-d]pyrimidin-4-one] |
| 0.01 µM | Cc1ccc2nc(CSc3nc4c(cnn4C4CCSCC4)c(=O)[nH]3)oc2c1 [Example 15, 6-(((6-methylbenzo[d]oxazol-2-yl)methyl)thio)-1-(tetrahydro-2H-thiopyran-4-yl)-1,5-dihydro-4H-pyrazolo[3,4-d]pyrimidin-4-one] |
| 0.006 µM | Cc1ccc2nc(CSc3nc4c(cnn4C4CCCCC4)c(=O)[nH]3)oc2c1 [Example 16, 6-(((6-methylbenzo[d]oxazol-2-yl)methyl)thio)-1-cyclohexyl-1,5-dihydro-4H-pyrazolo[3,4-d]pyrimidin-4-one] |
| 0.004 µM | Cc1ccc2nc(CSc3nc4c(cnn4C(C)C)c(=O)[nH]3)oc2c1 [Example 18, 6-(((6-methylbenzo[d]oxazol-2-yl)methyl)thio)-1-isopropyl-1,5-dihydro-4H-pyrazolo[3,4-d]pyrimidin-4-one] |
| 0.006 µM | CC(Sc1nc2c(cnn2C2CCC(F)(F)CC2)c(=O)[nH]1)c1nc2ccccc2o1 (stereo not shown) [Example 20] |
| 0.003 µM | CC(Sc1nc2c(cnn2C2CCOCC2)c(=O)[nH]1)c1nc2ccccc2o1 (stereo not shown) [Example 21] |
| 0.006 µM | Cc1ccc2nc(C(C)Sc3nc4c(cnn4C4CCC(F)(F)CC4)c(=O)[nH]3)oc2c1 (stereo not shown) [Example 22, 1-(4,4-difluorocyclohexyl)-6-((1-(6-methylbenzo[d]oxazol-2-yl)ethyl)thio)-1,5-dihydro-4H-pyrazolo[3,4-d]pyrimidin-4-one] |
| 0.002 µM | Cc1ccc2nc(C(C)Sc3nc4c(cnn4C4CCOCC4)c(=O)[nH]3)oc2c1 (stereo not shown) [Example 23, 6-((1-(6-methylbenzo[d]oxazol-2-yl)ethyl)thio)-1-(tetrahydro-2H-pyran-4-yl)-1,5-dihydro-4H-pyrazolo[3,4-d]pyrimidin-4-one] |
| 0.005 µM | Cc1ccc2nc(C(C)Sc3nc4c(cnn4C4CCSCC4)c(=O)[nH]3)oc2c1 (stereo not shown) [Example 24, 6-((1-(6-methylbenzo[d]oxazol-2-yl)ethyl)thio)-1-(tetrahydro-2H-thiopyran-4-yl)-1,5-dihydro-4H-pyrazolo[3,4-d]pyrimidin-4-one] |
